From US20260217761A1, “ANTIMICROBIAL PEPTIDE RICH IN TRYPTOPHAN AND HAVING SELF-ASSEMBLY PROPERTIES, AND USE THEREOF” (NANOQURE BIOTECH (SHENZHEN) CO., LTD., priority 2022, published 2026)
In brackets after ≈: the same amount, converted by molar mass. Non-standard residues stand in square brackets, D forms with d. Residues, ends and D or L forms follow the SMILES beside them.

Columns and labels:
[1] = test system: K. pneumoniae 106; type: cell-based, Klebsiella Pneumoniae
Method: (§1) • A. The polypeptide Z4 composed entirely of dextrorotatory amino acids is called the dextrorotatory isomer of polypeptide Z4. The polypeptide Z4-D was prepared into a certain stock solution for use. 0.01% acetic acid (containing 0.2% BSA) was used as the diluent, and a series of gradient antimicrobial peptide solutions were prepared in sequence by a two-fold dilution method. • B. 100 μL of the above-mentioned antimicrobial peptide stock solution was taken and placed in a 96-well cell culture plate. Then, an equal volume of the test bacterial solution (approximately […]) was added to each well. A positive control (containing the bacterial solution but no antimicrobial peptide) and a negative control (containing neither the bacterial solution nor the peptide) were included, respectively. The test bacterial species include Pseudomonas aeruginosa (Pseudomonas aeruginosa PL1, Pseudomonas aeruginosa SP1), Staphylococcus aureus (Staphylococcus aureus 544, Staphylococcus aureus 103), Escherichia coli (Escherichia coli 729, Escherichia coli 112), Klebsiella Pneumoniae (Klebsiella Pneumoniae 106, Klebsiella Pneumoniae 727), Streptococcus pneumonia 383, and Acinetobacter baumannii (Acinetobacter baumannii 946, Acinetobacter baumannii 780). • C. […] The minimum inhibitory concentration is determined as the condition where no turbidity is observed at the bottom of the well with naked eyes.

[2] = test system: K. pneumoniae 727; type: cell-based, Klebsiella Pneumoniae
Method: as §1

[3] = test system: various bacteria; assay: MIC against various bacteria (broad-spectrum antimicrobial activity); type: cell-based
Method: • A. The antimicrobial peptide was prepared into a certain stock solution for use. 0.01% acetic acid (containing 0.2% BSA) was used as the diluent, and a series of gradient antimicrobial peptide solutions were prepared sequentially by a two-fold dilution method. • B. 100 μL of the above-mentioned antimicrobial peptide stock solution was taken and placed in a 96-well cell culture plate. Then, an equal volume of the test bacterial solution (approximately 10^5 cells/mL) was added to each well. A positive control (containing the bacterial solution but no antimicrobial peptide) and a negative control (containing neither bacterial solution nor the peptide) were included, respectively. The test bacterial species include Pseudomonas aeruginosa (Pseudomonas aeruginosa PL1, Pseudomonas aeruginosa SP1), Staphylococcus aureus (Staphylococcus aureus 544, Staphylococcus aureus 103), Escherichia coli (Escherichia coli 729, Escherichia coli 112), Klebsiella Pneumoniae (Klebsiella Pneumoniae 106, Klebsiella Pneumoniae 727), Streptococcus pneumonia 383, Acinetobacter baumannii (Acinetobacter baumannii 946, Acinetobacter baumannii 780) (FIG. 1), or Pseudomonas aeruginosa (Pseudomonas aeruginosa PAO1), Staphylococcus aureus (Staphylococcus aureus SP1), and a mixed solution of the above two bacteria (FIG. 2). • C. The culture plate was placed in a constant temperature incubator at 37° C. for 20 h. The minimum inhibitory concentration is determined as the condition where no turbidity is observed at the bottom of the well with naked eyes.
• A. The polypeptide Z4 composed entirely of dextrorotatory amino acids is called the dextrorotatory isomer of polypeptide Z4. The polypeptide Z4-D was prepared into a certain stock solution for use. […] The minimum inhibitory concentration is determined as the condition where no turbidity is observed at the bottom of the well with naked eyes.

[4] = test system: mixed bacterial solution of P. aeruginosa PAO1 and S. aureus SP1; type: cell-based; conditions: within 0-120 minutes of proteinase K treatment, remained unchanged
Method: After ultrasonic treatment of polypeptide Z4 and polypeptide Z4-D for 30 min, they were placed at room temperature for 2 h to promote their self-assembly. Subsequently, proteinase K with a final concentration of 0.2 g/mL was mixed with the polypeptide solution (final concentration of 640 μM) and incubated at 37° C. for 0, 30, 60, 90 or 120 min respectively. Then, according to the scheme described in Example 2, the MICs of the polypeptides against the mixed bacterial solution of P. aeruginosa PAO1 and S. aureus SP1 under different treatment conditions were determined.

[5] = test system: P. aeruginosa PL1; type: cell-based, Pseudomonas aeruginosa
Method: as §1

[6] = test system: P. aeruginosa SP1; type: cell-based, Pseudomonas aeruginosa
Method: as §1

[7] = test system: A. baumannii 946; type: cell-based, Acinetobacter baumannii
Method: as §1

[8] = test system: A. baumannii 780; type: cell-based, Acinetobacter baumannii
Method: as §1

[9] = test system: E. coli 112; type: cell-based, Escherichia coli
Method: as §1

[10] = test system: E. coli 729; type: cell-based, Escherichia coli
Method: as §1

[11] = test system: S. pneumoniae 383; type: cell-based, Streptococcus pneumonia
Method: as §1

[12] = test system: S. aureus 103; type: cell-based, Staphylococcus aureus
Method: as §1

[13] = test system: S. aureus 544; type: cell-based, Staphylococcus aureus
Method: as §1

- MIC [1]: 128 µM (≈ 187 µg/mL)
- MIC [2]: 32 µM (≈ 46.7 µg/mL)
- MIC after proteinase K treatment [4]: 4 µM (≈ 5.84 µg/mL)
- MIC [5]: 16 µM (≈ 23.4 µg/mL)
- MIC [6]: 4 µM (≈ 5.84 µg/mL)
- MIC [7]: 4 µM (≈ 5.84 µg/mL)
- MIC [8]: 16 µM (≈ 23.4 µg/mL)
- MIC [9]: 4 µM (≈ 5.84 µg/mL)
- MIC [10]: 4 µM (≈ 5.84 µg/mL)
- MIC [11]: 4 µM (≈ 5.84 µg/mL)
- MIC [12]: 4 µM (≈ 5.84 µg/mL)
- MIC [13]: 4 µM (≈ 5.84 µg/mL)
Compound: NCCCC[C@@H](NC(=O)[C@@H](Cc1c[nH]c2ccccc12)NC(=O)[C@H](N)Cc1c[nH]c2ccccc12)C(=O)N[C@H](CCCCN)C(=O)N[C@H](Cc1c[nH]c2ccccc12)C(=O)N[C@H](CCCCN)C(=O)N[C@H](CCCCN)C(=O)N[C@H](Cc1c[nH]c2ccccc12)C(=O)N[C@H](Cc1c[nH]c2ccccc12)C(N)=O [Z4-D] (H-[dW][dW][dK][dK][dW][dK][dK][dW][dW]-NH2; N-terminus assumed)
- broad-spectrum antimicrobial activity [3]: good broad-spectrum antimicrobial activity
